In ChEMBL document CHEMBL1156392, “New sesquiterpene derivatives from the red alga Laurencia scoparia. Isolation, structure determination, and anthelmintic activity” (J Nat Prod, 2001):

Tested on: Nippostrongylus brasiliensis
Assay: Anthelmintic activity against Nippostrongylus brasiliensis
Type: functional, organism-based
Conditions: for EC50: Nippostrongylus brasiliensis

EC50 | Compound | Activity
 | C=C1C[C@@H](O)[C@@H](Br)C(C)(C)[C@@]12C=C/C(=C\Br)CC2 | <100 µM
 | C=C1CC[C@@H](Br)C(C)(C)[C@]12CC[C@](C)(Br)[C@@H](Cl)C2 | <100 µM
 | CCCCCCCCCCCCCC/C=C(/C=O)CCCCCCCCCCCCC | <100 µM
 | CC1=CC(=O)CC(C)(C)[C@@]12C=CC(=O)CC2 | <100 µM
 | C=C1C[C@@H](O)[C@@H](Br)C(C)(C)[C@@]12C=C/C(=C/Br)CC2 | <100 µM
 | C=C1C[C@@H](O)[C@@H](Br)C(C)(C)[C@@]12C=CC(=O)CC2 | <100 µM
 | C=C1C[C@@H](O)[C@H](Br)C(C)(C)[C@]12CC=C(C)CC2 | <100 µM
120 nM | COC(=O)Nc1nc2cc(Sc3ccccc3)ccc2[nH]1 [FENBENDAZOLE] | 
 | C=C1C[C@H](O)[C@@H](Br)C(C)(C)[C@@]12C=C[C@](C)(O)CC2 [ISORIGIDOL] | <100 µM
210 nM | c1ccc([C@H]2CN3CCSC3=N2)cc1 [LEVAMISOLE] | 

Compound | EC50 | Activity
CCCSc1ccc2[nH]c(NC(=O)OC)nc2c1 [ALBENDAZOLE] | 340 nM | 
